Measured values from patent publication US10253039B2, “Inhibitors of bacterial DNA gyrase with efficacy against gram-negative bacteria” (priority 2014, dated 2019).
Converted amounts (≈) assume the structure as drawn. Where two headings read alike, the source gives them in different places.

Experiments:
[1] = tested on: E. coli BW25113 ΔtolC gyrR isolate GyrA Ser97Pro; assay: MIC against gyramide-resistant mutant; settings: Escherichia coli, BW25113
[2] = tested on: E. coli BW25113 ΔtolC cipR isolate GyrA Ser83Leu; assay: MIC against ciprofloxacin-resistant mutant
[3] = tested on: E. coli BW25113 ΔtolC gyrR isolate GyrA His45Tyr; assay: MIC against gyramide-resistant mutant; settings: Escherichia coli, BW25113
E. coli BW25113 ΔtolC = assay: MIC, microdilution in 96-well plates
[4] = tested on: E. coli BW25113 ΔtolC gyrR isolate GyrA Phe96Leu; assay: MIC against gyramide-resistant mutant; settings: Escherichia coli, BW25113
[5] = tested on: E. coli BW25113 ΔtolC cipR isolate GyrB Ser464Phe; assay: MIC against ciprofloxacin-resistant mutant
[6] = tested on: E. coli BW25113 ΔtolC cipR isolate GyrA Asp87Gly; assay: MIC against ciprofloxacin-resistant mutant
[7] = tested on: E. coli BW25113 ΔtolC gyrR isolate GyrB Thr508Met; assay: MIC against gyramide-resistant mutant; settings: Escherichia coli, BW25113
[8] = tested on: E. coli BW25113 ΔtolC gyrR isolate GyrA Pro35Thr; assay: MIC against gyramide-resistant mutant; settings: Escherichia coli, BW25113
[9] = tested on: E. coli BW25113 ΔtolC cipR isolate GyrA Asp87Tyr; assay: MIC against ciprofloxacin-resistant mutant
Streptococcus agalactiae = assay: MIC, 20-strain panel; format: cell-based; settings: read-out: MIC
How it was run: (§1)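 Growth inhibition was scored after overnight culture (16-18 hours, 37° C., shaking) by looking for turbidity; the first clear well in a triplicate 2-fold compound series defined the MIC. Strains were inoculated at 1:10000 into LB.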

[10] = tested on: Staphylococcus saprophyticus subsp. saprophyticus; assay: MIC, 20-strain panel; format: cell-based; settings: read-out: MIC
How it was run: as §1

[11] = tested on: Morganella morganii subsp. morganii; assay: MIC, 20-strain panel; format: cell-based; settings: Morganella morganii subsp. morganii; Table 7, separate set of experiments; read-out: MIC
How it was run: as §1

E. coli MG1655 = assay: MIC, 20-strain panel; format: cell-based; settings: Escherichia coli, read-out: MIC
How it was run: as §1

E. coli JW5503 (deltolC) = assay: MIC, 20-strain panel; format: cell-based; settings: Escherichia coli
How it was run: as §1

Streptococcus pyogenes = assay: MIC, 20-strain panel; format: cell-based; settings: read-out: MIC
How it was run: as §1

[12] = tested on: Klebsiella pneumoniae subsp. pneumoniae; assay: MIC, 20-strain panel; format: cell-based; settings: read-out: MIC
How it was run: as §1

Bacillus subtilis 168 = assay: MIC, 20-strain panel; format: cell-based
How it was run: as §1

Enterococcus faecium = assay: MIC, 20-strain panel; format: cell-based
How it was run: as §1

[13] = tested on: Staphylococcus aureus subsp. aureus; assay: MIC, 20-strain panel; format: cell-based; settings: read-out: MIC
How it was run: as §1

[14] = tested on: Salmonella enterica subsp. enterica typhimurium; assay: MIC, 20-strain panel; format: cell-based
How it was run: as §1

Bacillus cereus = assay: MIC, 20-strain panel; format: cell-based
How it was run: as §1

Shigella flexneri = assay: MIC, 20-strain panel; format: cell-based
How it was run: as §1

Enterococcus faecalis = assay: MIC, 20-strain panel; format: cell-based; settings: Table 7, separate set of experiments
How it was run: as §1

[15] = tested on: Staphylococcus epidermidis; assay: MIC, 20-strain panel; format: cell-based; settings: read-out: MIC
How it was run: as §1

Edwardsiella tarda = assay: MIC, microdilution in 96-well plates; format: cell-based; settings: read-out: MIC
How it was run: as §1

Acinetobacter baumannii = assay: MIC, microdilution in 96-well plates; format: cell-based; settings: Table 7, separate set of experiments, read-out: MIC
How it was run: as §1

E. coli BW25113 = assay: MIC, microdilution in 96-well plates; format: cell-based; settings: Escherichia coli, read-out: MIC
How it was run: as §1

Pseudomonas aeruginosa = assay: MIC, microdilution in 96-well plates; format: cell-based; settings: Table 7, separate set of experiments, read-out: MIC
How it was run: as §1

Enterobacter aerogenes = assay: MIC, microdilution in 96-well plates; format: cell-based; settings: Klebsiella aerogenes, Enterobacter aerogenes; Table 7, separate set of experiments; read-out: MIC
How it was run: as §1

[16] = tested on: ciprofloxacin resistant strains of E. coli; assay: MIC against ciprofloxacin resistant strains compared to parent strain; settings: ratio to MIC of parent strain E. coli BW25113 ΔtolC
[17] = Table 7, separate set of experiments
[18] = I: Staphylococcus saprophyticus subsp. saprophyticus
[19] = Staphylococcus saprophyticus subsp. saprophyticus, Table 7, separate set of experiments
[20] = MG1655, E. coli MG1655, Table 7, separate set of experiments
[21] = E. coli JW5503 (deltolC), Table 7, separate set of experiments
[22] = E: Klebsiella pneumoniae subsp. pneumoniae
[23] = Klebsiella pneumoniae subsp. pneumoniae, Table 7, separate set of experiments
[24] = 20-strain screen of Table 6, read-out: MIC
[25] = H: Staphylococcus aureus subsp. aureus
[26] = Staphylococcus aureus subsp. aureus, Table 7, separate set of experiments
[27] = F: Salmonella enterica subsp. enterica Typhimurium
[28] = Salmonella enterica subsp. enterica typhimurium, Table 7, separate set of experiments
[29] = BW25113, E. coli BW25113, Table 7, separate set of experiments
[30] = Table 7, separate set of experiments, read-out: MIC

SMILES: O=C(O)c1cn(C2CC2)c2cc(N3CCNCC3)c(F)cc2c1=O [Ciprofloxacin, ciprofloxacin]
- MIC [1]: 0.005 µM (≈ 1.66 ng/mL)
- MIC ([2]; Escherichia coli, BW25113): 0.2 µM (≈ 66.3 ng/mL)
- MIC [3]: 0.01 µM (≈ 3.31 ng/mL)
- MIC (E. coli BW25113 ΔtolC; Escherichia coli, BW25113, E. coli BW25113 ΔtolC (parent strain), Table 4): 0.005 µM (≈ 1.66 ng/mL)
- MIC (E. coli BW25113 ΔtolC; Escherichia coli, BW25113, E. coli BW25113 ΔtolC (parent strain), Table 5): 0.00625 µM (≈ 2.07 ng/mL)
- MIC [4]: 0.01 µM (≈ 3.31 ng/mL)
- MIC ([5]; Escherichia coli, BW25113): 0.05 µM (≈ 16.6 ng/mL)
- MIC ([6]; Escherichia coli, BW25113): 0.05 µM (≈ 16.6 ng/mL)
- MIC [7]: 0.01 µM (≈ 3.31 ng/mL)
- MIC [8]: 0.005 µM (≈ 1.66 ng/mL)
- MIC ([9]; Escherichia coli, BW25113): 0.1 µM (≈ 33.1 ng/mL)

SMILES: Cc1ccc(C(F)(F)F)cc1S(=O)(=O)N[C@@H]1CCN(Cc2ccc(OC3CC3)cc2)C1 [Compound 91]
- MIC (Streptococcus agalactiae; K: Streptococcus agalactiae): 8 µg/mL (≈ 17.6 µM)
- MIC (Streptococcus agalactiae; [17]): 8 µg/mL (≈ 17.6 µM)
- MIC [10, 18]: 8 µg/mL (≈ 17.6 µM)
- MIC [10, 19]: 8 µg/mL (≈ 17.6 µM)
- MIC [11]: > 16 µg/mL
- MIC (E. coli MG1655; MG1655, A: E. coli MG1655): 4 µg/mL (≈ 8.8 µM)
- MIC (E. coli MG1655; [20]): 8 µg/mL (≈ 17.6 µM)
- MIC (E. coli JW5503 (deltolC); C: E. coli JW5503 (deltolC)): < 0.0625 µg/mL
- MIC (E. coli JW5503 (deltolC); [21]): < 0.0078 µg/mL
- MIC (Streptococcus pyogenes; L: Streptococcus pyogenes): 4 µg/mL (≈ 8.8 µM)
- MIC (Streptococcus pyogenes; [17]): 4 µg/mL (≈ 8.8 µM)
- MIC [12, 22]: > 8 µg/mL
- MIC [12, 23]: > 16 µg/mL
- MIC (Bacillus subtilis 168; [24]): 8 µg/mL (≈ 17.6 µM)
- MIC (Bacillus subtilis 168; [17]): 8 µg/mL (≈ 17.6 µM)
- MIC (Enterococcus faecium; [24]): 8 µg/mL (≈ 17.6 µM)
- MIC (Enterococcus faecium; [17]): 8 µg/mL (≈ 17.6 µM)
- MIC [13, 25]: 4 µg/mL (≈ 8.8 µM)
- MIC [13, 26]: 8 µg/mL (≈ 17.6 µM)
- MIC [14, 27]: 4 µg/mL (≈ 8.8 µM)
- MIC [14, 28]: 4 µg/mL (≈ 8.8 µM)
- MIC (Bacillus cereus; [24]): 8 µg/mL (≈ 17.6 µM)
- MIC (Bacillus cereus; [17]): 8 µg/mL (≈ 17.6 µM)
- MIC (Shigella flexneri; G: Shigella flexneri): 8 µg/mL (≈ 17.6 µM)
- MIC (Shigella flexneri; [17]): 4 µg/mL (≈ 8.8 µM)
- MIC (Enterococcus faecalis): 16 µg/mL (≈ 35.2 µM)
- MIC ([15]; J: Staphylococcus epidermidis): 2 µg/mL (≈ 4.4 µM)
- MIC [15, 17]: 8 µg/mL (≈ 17.6 µM)
- MIC (Edwardsiella tarda; D: Edwardsiella tarda): 8 µg/mL (≈ 17.6 µM)
- MIC (Edwardsiella tarda; [17]): 8 µg/mL (≈ 17.6 µM)
- MIC (Acinetobacter baumannii): > 16 µg/mL
- MIC (E. coli BW25113; BW25113, B: E. coli BW25113): 8 µg/mL (≈ 17.6 µM)
- MIC (E. coli BW25113; [29]): 8 µg/mL (≈ 17.6 µM)
- MIC (Pseudomonas aeruginosa): > 16 µg/mL
- MIC (Enterobacter aerogenes): > 16 µg/mL

SMILES: Cc1ccc(C#N)cc1S(=O)(=O)N[C@@H]1CCN(Cc2ccc(-c3ccccc3)cc2)C1 [Compound 143]
- MIC (Streptococcus agalactiae; K: Streptococcus agalactiae): > 8 µg/mL
- MIC (Streptococcus agalactiae; [17]): > 16 µg/mL
- MIC [10, 18]: > 8 µg/mL
- MIC [10, 19]: > 16 µg/mL
- MIC [11]: > 16 µg/mL
- MIC (E. coli MG1655; MG1655, A: E. coli MG1655): 8 µg/mL (≈ 18.5 µM)
- MIC (E. coli MG1655; [20]): 16 µg/mL (≈ 37.1 µM)
- MIC (E. coli JW5503 (deltolC); C: E. coli JW5503 (deltolC)): < 0.0625 µg/mL
- MIC (E. coli JW5503 (deltolC); [21]): < 0.0078 µg/mL
- MIC (Streptococcus pyogenes; L: Streptococcus pyogenes): > 8 µg/mL
- MIC (Streptococcus pyogenes; [17]): > 16 µg/mL
- MIC [12, 22]: > 8 µg/mL
- MIC [12, 23]: > 16 µg/mL
- MIC (Bacillus subtilis 168; [30]): > 16 µg/mL
- MIC (Enterococcus faecium; [30]): > 16 µg/mL
- MIC [13, 25]: > 8 µg/mL
- MIC [13, 26]: > 16 µg/mL
- MIC [14, 27]: 1 µg/mL (≈ 2.32 µM)
- MIC [14, 28]: 2 µg/mL (≈ 4.63 µM)
- MIC (Bacillus cereus; [30]): > 16 µg/mL
- MIC (Shigella flexneri; G: Shigella flexneri): 4 µg/mL (≈ 9.27 µM)
- MIC (Shigella flexneri; [17]): 4 µg/mL (≈ 9.27 µM)
- MIC (Enterococcus faecalis): > 16 µg/mL
- MIC ([15]; J: Staphylococcus epidermidis): ~8 µg/mL (≈ 18.5 µM)
- MIC [15, 17]: > 16 µg/mL
- MIC (Edwardsiella tarda; D: Edwardsiella tarda): ~8 µg/mL (≈ 18.5 µM)
- MIC (Edwardsiella tarda; [17]): 8 µg/mL (≈ 18.5 µM)
- MIC (Acinetobacter baumannii): > 16 µg/mL
- MIC (E. coli BW25113; BW25113, B: E. coli BW25113): ~8 µg/mL (≈ 18.5 µM)
- MIC (E. coli BW25113; [29]): 8 µg/mL (≈ 18.5 µM)
- MIC (Pseudomonas aeruginosa): > 16 µg/mL
- MIC (Enterobacter aerogenes): > 16 µg/mL

SMILES: Cc1ccc(F)cc1S(=O)(=O)NC1CCN(Cc2ccc(-c3ccccc3)cc2)C1 (stereo not drawn) [Gyramide C]
- MIC ([2]; cipR isolate GyrA Ser83Leu): 2.5 µM (≈ 1060 ng/mL)
- MIC (E. coli BW25113 ΔtolC; E. coli BW25113 ΔtolC (parent strain), Table 5): 2.5 µM (≈ 1060 ng/mL)
- MIC ([5]; cipR isolate GyrB Ser464Phe): 10 µM (≈ 4250 ng/mL)
- MIC ([6]; cipR isolate GyrA Asp87Gly): 5 µM (≈ 2120 ng/mL)
- MIC against ciprofloxacin resistant strains compared to the parent strain [16]: 1-4 times
- MIC ([9]; cipR isolate GyrA Asp87Tyr): 5 µM (≈ 2120 ng/mL)
